In US20230086703A1, “N-(4-(5-chloropyridin-3-yl)phenyl)-2-(2-(cyclopropanesulfonamido)pyrimidin-4-yl) butanamide derivatives and related compounds as human CTPS1 inhibitors for the treatment of proliferative diseases” (Step Pharma S.A.S., priority 2019, published 2023):
Like-named read-outs stand apart in the source and are kept apart here.

Experiments:
human CTPS1 [1] = target: T1, human CTPS1 (Homo sapiens, UniProt P17812); test: Human CTPS1 enzyme inhibition, ADP-Glo Max assay; format: biochemical
T1 construct: FLAG (with GG linker); His8 (with GG linker); purchased Proteros biostructures GmbH
T1 sequence (P17812 1-591): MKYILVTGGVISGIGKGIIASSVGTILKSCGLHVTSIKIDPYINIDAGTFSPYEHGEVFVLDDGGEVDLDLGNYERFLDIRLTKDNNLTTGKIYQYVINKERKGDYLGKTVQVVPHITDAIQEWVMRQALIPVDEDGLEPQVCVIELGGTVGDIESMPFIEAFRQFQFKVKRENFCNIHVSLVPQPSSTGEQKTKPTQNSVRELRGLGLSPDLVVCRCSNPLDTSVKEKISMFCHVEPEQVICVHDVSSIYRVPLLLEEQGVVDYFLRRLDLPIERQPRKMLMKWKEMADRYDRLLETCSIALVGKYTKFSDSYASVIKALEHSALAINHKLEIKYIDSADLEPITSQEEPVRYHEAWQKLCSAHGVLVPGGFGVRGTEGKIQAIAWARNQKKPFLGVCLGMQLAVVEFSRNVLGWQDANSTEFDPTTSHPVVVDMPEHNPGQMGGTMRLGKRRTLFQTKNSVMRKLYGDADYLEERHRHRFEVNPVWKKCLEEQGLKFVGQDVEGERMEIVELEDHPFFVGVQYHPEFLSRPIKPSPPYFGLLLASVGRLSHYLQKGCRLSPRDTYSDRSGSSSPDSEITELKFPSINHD
Method in brief: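 Read-out is ADP-Glo Max luminescence: residual ATP depleted (60 min), then produced ADP converted back to ATP for luciferase detection (60 min). Beforehand, protein and compound were mixed for 10 min at 25 °C in Tris buffer pH 8.0 with MgCl2, Tween-20 and 2 mM L-cysteine. Results expressed as percentage inhibition per concentration.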

human CTPS1 [2] = target: T1, human CTPS1; test: RapidFire/MS-based enzyme selectivity assay (human CTPS1 versus CTPS2), CTPS1 isoform; format: biochemical
Method in brief: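 Full-length C-terminal FLAG-His-tagged CTPS1 (1-591) was preincubated 10 min at 25 °C with compound in HEPES pH 8.0 buffer with MgCl2, KCl, DTT and Tween-20. Reactions were started with a 2× mix of ATP 0.3 mM, UTP 0.2 mM, GTP 0.07 mM and L-glutamine 0.1 mM, and run in the linear phase at 25 °C. IC50 comes from the RapidFire-MS ratio of CTP to 13C9-15N3-CTP.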

[3] = Table 12, ADP-Glo Max assay, read-out: CTPS1 (Human CTPS1 Enzyme Inhibition data grouped by potency range)
[4] = RapidFire/MS IC50 values of CTPS1 and CTPS2, Table 17
[5] = RapidFire/MS IC50 values of CTPS1 and CTPS2, Table 15
[6] = Table 16, human CTPS1 over human CTPS2, RapidFire/MS IC50 values

SMILES | IC50 (human CTPS1 [1]; [3]) | Selectivity (fold selectivity between CTPS1 and CTPS2) (human CTPS1 [2]; [4]) | IC50 (human CTPS1 [1]; ADP-Glo Max assay, human full length CTPS1, read-out: CTPS1 (Human CTPS1 Enzyme Inhibition data grouped by potency range, IC50)) | Selectivity (fold selectivity between CTPS1 and CTPS2) (human CTPS1 [2]; [5]) | Selectivity (fold selectivity between CTPS1 and CTPS2) (human CTPS1 [2]; [6])
CCOc1cncc(-c2ccc(NC(=O)C3(c4cncc(NS(=O)(=O)C5CC5)n4)CCN(S(C)(=O)=O)CC3)nc2)n1 [P314] | < 100 nM | +++ (>60 fold (+++)) | – | – | –
CS(=O)(=O)N1CCC(C(=O)Nc2ccc(-c3cncc(C4CC4)n3)cn2)(c2nccc(NS(=O)(=O)C3CC3)n2)CC1 [P315] | < 100 nM | +++ (>60 fold (+++)) | – | – | –
CCOc1cncc(-c2ccc(NC(=O)C3(c4ccnc(NS(=O)(=O)C5CC5)n4)CCC(N(C)CCOC)CC3)nc2)n1 (stereo not drawn) [P309] | 100 to 1000 nM | +++ (>60 fold (+++)) | – | – | –
CCOc1cncc(-c2ccc(NC(=O)C3(c4ccnc(NS(=O)(=O)C5CC5)n4)CCC(N4CCCC4)CC3)nc2)n1 (stereo not drawn) [P303] | 100 to 1000 nM | +++ (>60 fold (+++)) | – | – | –
CCOc1cncc(-c2ccc(NC(=O)C3(c4ccnc(NS(=O)(=O)C5CC5)n4)CCN(S(=O)(=O)C4CC4)CC3)nc2)n1 [P290] | < 100 nM | +++ (>60 fold (+++)) | – | – | –
COC1CCC(C(=O)Nc2ccc(-c3cncc(C4CC4)n3)cn2)(c2ccnc(NS(=O)(=O)C3CC3)n2)CC1 (stereo not drawn) [P313] | < 100 nM | +++ (>60 fold (+++)) | – | – | –
CCOc1cncc(-c2ccc(NC(=O)C3(c4ccnc(NS(=O)(=O)C5CC5)n4)CCC(N4CCN(C)CC4)CC3)nc2)n1 (stereo not drawn) [P312] | < 100 nM | +++ (>60 fold (+++)) | – | – | –
CCOc1cncc(-c2ccc(NC(=O)C3(c4ccnc(NS(=O)(=O)C5CC5)n4)CCC(N4CCOCC4)CC3)nc2)n1 (stereo not drawn) [P306] | < 100 nM | +++ (>60 fold (+++)) | – | – | –
CCOc1cncc(-c2ccc(NC(=O)C3(c4ccnc(NS(=O)(=O)C5CC5)n4)CCC(N(C)C4COC4)CC3)nc2)n1 (stereo not drawn) [P307] | < 100 nM | +++ (>60 fold (+++)) | – | – | –
CCOc1cncc(-c2ccc(NC(=O)C3(c4ccnc(NS(=O)(=O)C5CC5)n4)CCN(S(=O)(=O)C(F)(F)F)CC3)nc2)n1 [P292] | < 100 nM | +++ (>60 fold (+++)) | – | – | –
CCOc1cncc(-c2ccc(NC(=O)C(F)(CC)c3ccnc(NS(=O)(=O)C4CC4)n3)nc2)n1 (stereo not drawn) [P112, 2-(2-(Cyclopropanesulfonamido)pyrimidin-4-yl)-N-(5-(6-ethoxypyrazin-2-yl)pyridin-2-yl)-2-fluorobutanamide] | – | – | < 100 nM | ++ (>30-60 fold (++)) | –
COC1CCC(C(=O)Nc2ccc(-c3cncc(C4CC4)n3)cn2)(c2ccnc(NS(=O)(=O)C3CC3)n2)CC1 (stereo not drawn) [P301] | < 100 nM | +++ (>60 fold (+++)) | – | – | –
CCOc1cncc(-c2ccc(NC(=O)C3(c4ccnc(NS(=O)(=O)CC)n4)CCN(S(=O)(=O)c4ccn(C)n4)CC3)nc2)n1 [P300] | < 100 nM | +++ (>60 fold (+++)) | – | – | –
CCOc1cncc(-c2ccc(NC(=O)C3(c4ccnc(NS(=O)(=O)C5CC5)n4)CCN(S(=O)(=O)c4ccn(C)n4)CC3)nc2)n1 [P293] | < 100 nM | +++ (>60 fold (+++)) | – | – | –
CCOc1cncc(-c2ccc(NC(=O)C3(c4ccnc(NS(=O)(=O)CC)n4)CCN(S(=O)(=O)CC)CC3)nc2)n1 [P298] | < 100 nM | +++ (>60 fold (+++)) | – | – | –
CCS(=O)(=O)N1CCC(C(=O)Nc2ccc(-c3cncc(C4CC4)n3)cn2)(c2nccc(NS(=O)(=O)C3CC3)n2)CC1 [P317] | < 100 nM | +++ (>60 fold (+++)) | – | – | –

SMILES | IC50 (human CTPS1 [1]; [3]) | Selectivity (fold selectivity between CTPS1 and CTPS2) (human CTPS1 [2]; [4]) | IC50 (human CTPS1 [1]; ADP-Glo Max assay, human full length CTPS1, read-out: CTPS1 (Human CTPS1 Enzyme Inhibition data grouped by potency range, IC50)) | Selectivity (fold selectivity between CTPS1 and CTPS2) (human CTPS1 [2]; [5]) | Selectivity (fold selectivity between CTPS1 and CTPS2) (human CTPS1 [2]; [6])
CCOc1cncc(-c2ccc(NC(=O)C3(c4nccc(NS(=O)(=O)C5CC5)n4)CCN(S(C)(=O)=O)CC3)nc2)n1 [P316] | < 100 nM | +++ (>60 fold (+++)) | – | – | –
CCOc1cncc(-c2ccc(NC(=O)C3(c4nccc(NS(=O)(=O)C5CC5)n4)CCN(CC#N)CC3)nc2)n1 [P294] | < 100 nM | +++ (>60 fold (+++)) | – | – | –
CCOc1cncc(-c2ccc(NC(=O)C3(c4ccnc(NS(=O)(=O)C5CC5)n4)CCC(N(C)CCOC)CC3)nc2)n1 (stereo not drawn) [P308] | < 100 nM | +++ (>60 fold (+++)) | – | – | –
CCOc1cncc(-c2ccc(NC(=O)C3(c4ccnc(NS(=O)(=O)C5CC5)n4)CCC(N4CCCC4)CC3)nc2)n1 (stereo not drawn) [P302] | < 100 nM | +++ (>60 fold (+++)) | – | – | –
CCOc1cncc(-c2ccc(NC(=O)C3(c4ccnc(NS(=O)(=O)CC)n4)CCN(S(C)(=O)=O)CC3)nc2)n1 [P297] | < 100 nM | +++ (>60 fold (+++)) | – | – | –
CCOc1cncc(-c2ccc(NC(=O)C3(c4ccnc(NS(=O)(=O)C5CC5)n4)CCC(N4CCOCC4)CC3)nc2)n1 (stereo not drawn) [P305] | 100 to 1000 nM | +++ (>60 fold (+++)) | – | – | –
CCOc1cncc(-c2ccc(NC(=O)C3(c4ccnc(NS(=O)(=O)C5CC5)n4)CCN(S(=O)(=O)CC)CC3)nc2)n1 [P289] | < 100 nM | +++ (>60 fold (+++)) | – | – | –
CCOc1cncc(-c2ccc(NC(=O)C3(c4ccnc(NS(=O)(=O)C5CC5)n4)CCN(S(=O)(=O)N(C)C)CC3)nc2)n1 [P291] | < 100 nM | +++ (>60 fold (+++)) | – | – | –
CCOc1cncc(-c2ccc(NC(=O)C3(c4ccnc(NS(=O)(=O)CC)n4)CCN(S(=O)(=O)C4CC4)CC3)nc2)n1 [P299] | < 100 nM | +++ (>60 fold (+++)) | – | – | –
CCOc1cncc(-c2ccc(NC(=O)C3(c4nccc(NS(=O)(=O)C5CC5)n4)CCN(S(=O)(=O)CC)CC3)nc2)n1 [P318] | < 100 nM | +++ (>60 fold (+++)) | – | – | –
CCOc1cncc(-c2ccc(NC(=O)C(F)(CC)c3cncc(NS(=O)(=O)C4CC4)n3)nc2)n1 (stereo not drawn) [P200, 2-(6-(cyclopropanesulfonamido)pyrazin-2-yl)-N-(5-(6-ethoxypyrazin-2-yl)pyridin-2-yl)-2-fluorobutanamide] | – | – | – | ++ (>30-60 fold (++)) | –
CCOc1cncc(-c2ccc(C(=O)NC(CC)c3ccnc(NS(=O)(=O)C4CC4)n3)c(F)c2)n1 (stereo not drawn) [P216, N-(1-(2-(cyclopropanesulfonamido)pyrimidin-4-yl)propyl)-4-(6-ethoxypyrazin-2-yl)-2-fluorobenzamide] | – | – | – | +++ (>60 fold (+++)) | –
CCOc1cncc(-c2ccc(C(=O)NC(C)(C)c3nc(NS(=O)(=O)C4CC4)sc3Cl)nc2)n1 [R73] | – | – | – | – | + (2-30 fold (+))
COCCC(NC(=O)c1ccc(-c2cncc(C(F)(F)F)n2)cc1F)c1csc(NS(=O)(=O)C2CC2)n1 (stereo not drawn) [R87, N-(1-(2-(cyclopropanesulfon-amido)thiazol-4-yl)-3-methoxypropyl)-2-fluoro-4-(6-(trifluoromethyl)pyrazin-2-yl)benzamide] | – | – | – | – | ++ (>30-60 fold (++))
CCOc1cncc(-c2ccc(NC(=O)C(C)(OC)c3cncc(NS(=O)(=O)C4CC4)n3)nc2)n1 (single isomer, unassigned) [P205a, 2-(6-(cyclopropanesulfonamido)pyrazin-2-yl)-N-(5-(6-ethoxypyrazin-2-yl)pyridin-2-yl)-2-methoxypropanamide] | – | – | – | +++ (>60 fold (+++)) | –
